According to PubChem BioAssay AID2060502 (Molecular Pharmacology Branch, DTP, NCI, 2025):

Test system: 885724-159-R-J1-PDC complex spheroid viability
Test: Anticancer human tumor 885724-159-R-J1-PDC patient-derived pancreatic adenocarcinoma cell line growth inhibition [GQUAD]
Conditions: for IC50: curve of first compound; for viability, T/C: stronger effect = lower value; active = viability on the fitted dose curve at most 10% of control; inactive = the rest
Method in brief: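 Viability of tumor cells grown as complex spheroids with endothelial and stromal cells, exposed to drug combinations. Top concentration at or near clinical Cmax (else 10 microM), diluted in half-log increments.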

[1] = second compound 0.0316 µM, first compound 0.0316 µM
[2] = second compound 0.0316 µM, first compound 0.1 µM
[3] = second compound 0.0316 µM, first compound 0.316 µM
[4] = second compound 0.0316 µM, first compound 1 µM
[5] = second compound 0.0316 µM, first compound 3.16 µM
[6] = second compound 0.0316 µM, first compound 10 µM
[7] = second compound 0.1 µM, first compound 0.0316 µM
[8] = second compound 0.1 µM, first compound 0.1 µM
[9] = second compound 0.1 µM, first compound 0.316 µM
[10] = second compound 0.1 µM, first compound 1 µM
[11] = second compound 0.1 µM, first compound 3.16 µM
[12] = second compound 0.1 µM, first compound 10 µM
[13] = second compound 0.316 µM, first compound 0.0316 µM
[14] = second compound 0.316 µM, first compound 0.1 µM
[15] = second compound 0.316 µM, first compound 0.316 µM
[16] = second compound 0.316 µM, first compound 1 µM
[17] = second compound 0.316 µM, first compound 3.16 µM
[18] = second compound 0.316 µM, first compound 10 µM
[19] = second compound 1 µM, first compound 0.0316 µM
[20] = second compound 1 µM, first compound 0.1 µM
[21] = second compound 1 µM, first compound 0.316 µM
[22] = second compound 1 µM, first compound 1 µM
[23] = second compound 1 µM, first compound 3.16 µM
[24] = second compound 1 µM, first compound 10 µM
[25] = second compound 3.16 µM, first compound 0.0316 µM
[26] = second compound 3.16 µM, first compound 0.1 µM
[27] = second compound 3.16 µM, first compound 0.316 µM
[28] = second compound 3.16 µM, first compound 1 µM
[29] = second compound 3.16 µM, first compound 3.16 µM
[30] = second compound 3.16 µM, first compound 10 µM
[31] = second compound 10 µM, first compound 0.0316 µM
[32] = second compound 10 µM, first compound 0.1 µM
[33] = second compound 10 µM, first compound 0.316 µM
[34] = second compound 10 µM, first compound 1 µM
[35] = second compound 10 µM, first compound 3.16 µM
[36] = second compound 10 µM, first compound 10 µM
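Also: spheroids exposed to agents for seven days before readout.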
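For viability, T/C in this document: percent of vehicle control viability where 100% = DMSO wells.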

O=C(NO)c1cnc(N2CCN(S(=O)(=O)c3ccc4ccccc4c3)CC2)nc1 + Cc1cnc(CNC(=O)c2c(=O)c3ccc(N4CCCN(C)CC4)nc3n3c2sc2ccccc23)cn1
0.183 µM: IC50 (second compound 10 µM)
0.182 µM: IC50 (second compound 3.16 µM)
0.434 µM: IC50 (second compound 1 µM)
inactive: viability, T/C [1] 77.4% | viability, T/C [2] 83.3% | viability, T/C [3] 65.4% | viability, T/C [4] 31.2% | viability, T/C [7] 117% | viability, T/C [8] 79.7% | viability, T/C [9] 56.6% | viability, T/C [10] 40% | viability, T/C [11] 10.4% | viability, T/C [13] 102% | viability, T/C [14] 78.9% | viability, T/C [15] 63.3% | viability, T/C [16] 26.1% | viability, T/C [17] 12.7% | viability, T/C [19] 80.5% | viability, T/C [20] 70.4% | viability, T/C [21] 60% | viability, T/C [22] 28.4% | viability, T/C [25] 80.6% | viability, T/C [26] 59.6% | viability, T/C [27] 39.8% | viability, T/C [28] 23.7% | viability, T/C [31] 60.2% | viability, T/C [32] 58.5% | viability, T/C [33] 42% | viability, T/C [34] 20.5%
active: viability, T/C [5] 13.7% | viability, T/C [6] 0.25% | viability, T/C [12] 0.28% | viability, T/C [18] 0.32% | viability, T/C [23] 9.39% | viability, T/C [24] 0.18% | viability, T/C [29] 0.23% | viability, T/C [30] 0.18% | viability, T/C [35] 0.26% | viability, T/C [36] 0.22%
0.45 µM: IC50 (second compound 0.1 µM)
0.549 µM: IC50 (second compound 0.0316 µM)
0.437 µM: IC50 (second compound 0.316 µM)

CC(C)(O)C1CCC(Nc2ccc3ncc(-c4cccc(C(F)(F)F)c4)n3n2)CC1 (stereo not given) + CN(C)c1ccc(Nc2c3ccc(NC(=O)CCN4CCCC4)cc3nc3cc(NC(=O)CCN4CCCC4)ccc23)cc1
3.14 µM: IC50 (second compound 0.1 µM)
inactive: viability, T/C [1] 109% | viability, T/C [2] 98% | viability, T/C [3] 87% | viability, T/C [4] 70.5% | viability, T/C [5] 42.1% | viability, T/C [6] 41.2% | viability, T/C [7] 97.7% | viability, T/C [8] 92.8% | viability, T/C [9] 80.3% | viability, T/C [10] 71.2% | viability, T/C [11] 44.8% | viability, T/C [12] 44.1% | viability, T/C [13] 83.7% | viability, T/C [14] 84.2% | viability, T/C [15] 71.6% | viability, T/C [16] 64.1% | viability, T/C [17] 38% | viability, T/C [18] 35.7% | viability, T/C [19] 83.6% | viability, T/C [20] 67.9% | viability, T/C [21] 71.1% | viability, T/C [22] 62.3% | viability, T/C [23] 30.5% | viability, T/C [24] 35.6% | viability, T/C [25] 76.1% | viability, T/C [26] 75.6% | viability, T/C [27] 65.9% | viability, T/C [28] 44.5% | viability, T/C [29] 27.9% | viability, T/C [30] 19.3% | viability, T/C [31] 62% | viability, T/C [32] 63.5% | viability, T/C [33] 57.3% | viability, T/C [34] 55.7% | viability, T/C [35] 20.6%
1.88 µM: IC50 (second compound 0.316 µM)
1.19 µM: IC50 (second compound 10 µM)
0.764 µM: IC50 (second compound 3.16 µM)
active: viability, T/C [36] 7.17%
2.73 µM: IC50 (second compound 0.0316 µM)
1.62 µM: IC50 (second compound 1 µM)

Cc1cccc(N(C)C(=O)C2C(O)CCN2c2nc(C)cc(C(F)(F)F)c2C#N)c1 (stereo not given) + Cc1[nH]c2ccc(F)cc2c1-c1nc2c3cccnc3c3ncccc3c2[nH]1
inactive: viability, T/C [1] 105% | viability, T/C [2] 93.1% | viability, T/C [3] 82.5% | viability, T/C [4] 100% | viability, T/C [5] 94.2% | viability, T/C [6] 93.1% | viability, T/C [7] 91.3% | viability, T/C [8] 95.3% | viability, T/C [9] 104% | viability, T/C [10] 98.6% | viability, T/C [11] 81.8% | viability, T/C [12] 87.8% | viability, T/C [13] 101% | viability, T/C [14] 101% | viability, T/C [15] 97.4% | viability, T/C [16] 79.9% | viability, T/C [17] 83.4% | viability, T/C [18] 86.7% | viability, T/C [19] 71.9% | viability, T/C [20] 70.6% | viability, T/C [21] 77.1% | viability, T/C [22] 66.2% | viability, T/C [23] 81% | viability, T/C [24] 70.8% | viability, T/C [25] 46.6% | viability, T/C [26] 41.4% | viability, T/C [27] 50.8% | viability, T/C [28] 42.6% | viability, T/C [29] 42.1% | viability, T/C [30] 43% | viability, T/C [31] 66.2% | viability, T/C [32] 68.3% | viability, T/C [33] 64.8% | viability, T/C [34] 69.1% | viability, T/C [35] 80.9% | viability, T/C [36] 82.7%
< 0.0316 µM: IC50 (second compound 3.16 µM)
> 10 µM: IC50 (second compound 0.0316 µM) | IC50 (second compound 0.1 µM) | IC50 (second compound 0.316 µM) | IC50 (second compound 1 µM) | IC50 (second compound 10 µM)

C#Cc1c(F)ccc2cc(O)cc(-c3ncc4c(N5CC6CCC(C5)N6)nc(OCC56CCCN5CC(F)C6)nc4c3F)c12 (stereo not given) + CN(C)c1ccc(Nc2c3ccc(NC(=O)CCN4CCCC4)cc3nc3cc(NC(=O)CCN4CCCC4)ccc23)cc1
inactive: viability, T/C [1] 92.1% | viability, T/C [2] 112% | viability, T/C [3] 94.8% | viability, T/C [4] 86.9% | viability, T/C [5] 58.8% | viability, T/C [6] 22.8% | viability, T/C [7] 114% | viability, T/C [8] 100% | viability, T/C [9] 98.3% | viability, T/C [10] 86.2% | viability, T/C [11] 56.7% | viability, T/C [12] 26.1% | viability, T/C [13] 95% | viability, T/C [14] 100% | viability, T/C [15] 96.6% | viability, T/C [16] 79.2% | viability, T/C [17] 68.1% | viability, T/C [18] 28.7% | viability, T/C [19] 89.4% | viability, T/C [20] 72.7% | viability, T/C [21] 87.8% | viability, T/C [22] 79.3% | viability, T/C [23] 59.5% | viability, T/C [24] 24.6% | viability, T/C [25] 78.3% | viability, T/C [26] 68.1% | viability, T/C [27] 69.5% | viability, T/C [28] 60.9% | viability, T/C [29] 51.4% | viability, T/C [30] 24.7% | viability, T/C [31] 64.8% | viability, T/C [32] 68.7% | viability, T/C [33] 58% | viability, T/C [34] 84.2% | viability, T/C [35] 40.2%
5.21 µM: IC50 (second compound 0.316 µM)
2.13 µM: IC50 (second compound 10 µM)
4.17 µM: IC50 (second compound 0.0316 µM)
active: viability, T/C [36] 2.3%
4.29 µM: IC50 (second compound 0.1 µM)
2.94 µM: IC50 (second compound 3.16 µM)
4.33 µM: IC50 (second compound 1 µM)

COc1ncnc(C2CC2)c1-c1ncc2cnn(Cc3ccc(-c4nc(C(F)(F)F)cn4C(C)C)cc3)c2n1 + Cc1cnc(CNC(=O)c2c(=O)c3ccc(N4CCCN(C)CC4)nc3n3c2sc2ccccc23)cn1
inactive: viability, T/C [1] 113% | viability, T/C [2] 106% | viability, T/C [3] 103% | viability, T/C [4] 114% | viability, T/C [5] 115% | viability, T/C [6] 118% | viability, T/C [7] 117% | viability, T/C [8] 114% | viability, T/C [9] 111% | viability, T/C [10] 103% | viability, T/C [11] 112% | viability, T/C [12] 109% | viability, T/C [13] 97.5% | viability, T/C [14] 97.4% | viability, T/C [15] 92.4% | viability, T/C [16] 98.5% | viability, T/C [17] 110% | viability, T/C [18] 106% | viability, T/C [19] 95.1% | viability, T/C [20] 90.8% | viability, T/C [21] 93.6% | viability, T/C [22] 87.5% | viability, T/C [23] 99.3% | viability, T/C [24] 87.3% | viability, T/C [25] 76.4% | viability, T/C [26] 73.6% | viability, T/C [27] 73.2% | viability, T/C [28] 72.7% | viability, T/C [29] 82.5% | viability, T/C [30] 79.5% | viability, T/C [31] 69.5% | viability, T/C [32] 69.5% | viability, T/C [33] 61.8% | viability, T/C [34] 66.5% | viability, T/C [35] 76.7% | viability, T/C [36] 75.8%
> 10 µM: IC50 (second compound 0.0316 µM) | IC50 (second compound 0.1 µM) | IC50 (second compound 0.316 µM) | IC50 (second compound 1 µM) | IC50 (second compound 3.16 µM) | IC50 (second compound 10 µM)
